The text below walks through data of patent US9579325B2, “Modulators of TNF-α signaling” (Genzyme Corporation, priority 2000, dated 2017).

Where two headings read alike, the source gives them in different places. Bounds are passed on as bounds.

One data set relates to C57/BL mouse. The data set can be described thus: Sepsis model: murine LPS-d-galactosamine model. It counts as in vivo. The note with it: prevention of mortality over three days. The method, then:
Sepsis was induced in the C57/BL mouse by the intravenous injection of 20 ng of lipopolysaccharide/animal plus 20 mgs d-galactosamine/animal. Inhibition was measured as the prevention of mortality over a three day period. Compounds were administered intraperitoneally in 10% cremophore/10% ethanol/80% normal saline one hour before induction.

The test system of a further data set is L929 cells. The data set can be described thus: TNF High Throughput Screen (TNF-α driven apoptosis assay). It counts as cell-based, mouse. The conditions noted are these: human TNF-α + actinomycin D; for IC50: read-out: TNFα IC50; for inhibition at 1 µM: compound at 1 μM, read-out: TNFα % Inh. @ 1 μM. The text has this: (§1) Description of Table V: The results shown in Table V were obtained using the TNF-α assays performed as described in the protocols entitled “Method for TNF High Throughput Screen” and “Method for VCAM High Throughput Screen”, which are detailed below. These assays measure a cellular response to TNF-α stimulation, and the data published in the table are expressed as percentage inhibitions. Percentage inhibition is computed on a scale of 0 to 100% where 0 percent inhibition means the compound has no effect in the assay (the response is indistinguishable from TNF-α treatment alone), and 100% inhibition means that when the compound is present at the stated concentration, the response in the assay is the same as if TNF-α were not added. These two assays measure two different outcomes of TNF-α treatment, cell death and Vascular Cell Adhesion Molecule (VCAM) expression, and capture two of TNF-α's many biological effects. TNF-α induced apoptosis is a mechanism by which TNF-α production during immune/inflammatory responses can lead to direct cellular and tissue damage. TNF-α VCAM expression in endothelial cells is a response that allows leukocytes to leave the blood and enter a site of immune/inflammatory response. Both of these activities could lead to pathology in immune/inflammatory diseases. In the first column of the table, the percentage inhibition of the TNF-α driven apoptosis assay when the compounds are tested at 1 μM concentration is presented. The second column in the table lists the IC50 for the compound, a standard measure using a dilution series in the assay, and fitting a sigmoidal curve to the resulting dose-response curve. The IC50 is the concentration (derived analytically from the sigmoidal function) at which the compound would inhibit 50% of the response in the assay. The third and fourth column list the corresponding analysis for the TNF-α driven VCAM assay. In Table VI, data corresponding to the data in column 1 of Table V is shown, with human cells replacing the mouse cells used in the high throughput screen. […] As a consequence, the compounds will have use in treating more than one TNF-α mediated condition, and may be selected according to the manner in which the condition manifests. This corresponds to the use of these compounds in the treatment of human disease.
TNF High Throughput Screen.
• 1. Plate 4×10^4 L929 cells in 100 μl of complete EMEM in Costar 96 well plates in PM. • 2. The next day, pretreat with compound, inhibitor and control vehicle for 2 hours. • 3. After 2 hours pretreatment, add 10 μl 5 ng/ml human TNF-α and actinomycin D (40 μg/ml final concentration). • 4. Incubate overnight. • 5. In AM, remove supernatant. • 6. Wash on a plate washer (0.9% NaCl). • 7. Add 100 μl Crystal Violet 0.1% in 20% ETOH. • 8. Incubate at RT for 10 minutes. • 9. Wash on plate washer. • 10. Air dry wells at 37° C. • 11. Add 100 μl of methanol to each well. • 12. Shake plates on orbital shaker and read at 595 nm on plate reader. VCAM High Throughput Screen: Protocol: • 1. Plate Primary human umbilical vein endothelial cells at 1.8×10^4 cells/well in a 96-well tissue culture plate. • 2. Return Plates to 37° C. incubator for 48-72 hours before assay. • 3. On assay day, aspirate wells and add 1804, of endothelial growth cell medium (EGM) to each well. • 4. Add Compound to each well. • 5. Shake plates for 3 minutes. • 6. Incubate plate for 1 hour at 37° C. • 7. Add Tumor Necrosis Factor (TNF) at 1.0 ng/ml final concentration. • 8. Shake plates for 3 minutes. • 9. Incubate plate for 2 hours at 37° C. • 10. Remove plate from incubator and wash plate 3 times with phosphate buffered saline (PBS) using a plate washer. • 11. Add anti-VCAM antibody at 0.5 μg/ml final concentration. • 12. Incubate at 4° C. overnight. • 13. Wash 3 times with PBS on plate washer. • 14. Add goat anti-mouse horseradish peroxidase conjugate. • 15. Incubate at room temperature for one hour. • 16. Wash 3 times with PBS on plate washer. • 17. […]

Data set [1] can be described thus: Pharmacokinetic parameters. It counts as in vivo. The conditions noted are these: for half-life: unit and species not given, read-out: Pharmacokinetic Parameters t1/2 (converted).
In a further data set the test system is male rats. Put plainly: Inflammatory Bowel Disease model: rat DNBS distal colitis. It counts as in vivo. The conditions noted are these: 7 doses. As to the method:
Groups of three male rats weighing 150+/−10 g and fasted for 24 hours were used. Distal colitis was induced by intracolonic instillation of 0.5 ml/rat DNBS (2,4-dinitrobenzene sulfonic acid, 60 mg/ml in ethanol 30%) after which air (2 ml) was gently injected through the cannula to ensure that the solution remains in the colon. A test compound was administered orally 24 and 2 hours before DNBS-instillation and then daily for 5 days in a total of 7 doses. The animals were sacrificed 24 hours after the final dose of test compound administration and each colon was removed and weighed.

In data set [2] the test system is Vascular Cell Adhesion Molecule (VCAM) expression in primary human umbilical vein endothelial cells. Put plainly: VCAM High Throughput Screen (TNF-α driven VCAM expression). It counts as cell-based. The conditions noted are these: HUVEC, TNF 1.0 ng/ml.
Excerpt: as §1
• 1. Plate 4×10^4 L929 cells in 100 μl of complete EMEM in Costar 96 well plates in PM. • 2. The next day, pretreat with compound, inhibitor and control vehicle for 2 hours. • 3. After 2 hours pretreatment, add 10 μl 5 ng/ml human TNF-α and actinomycin D (40 μg/ml final concentration). • 4. Incubate overnight. • 5. In AM, remove supernatant. • 6. Wash on a plate washer (0.9% NaCl). • 7. […] Shake plates on orbital shaker and read at 595 nm on plate reader. […]

Usually IC50 stands for the midpoint of a concentration-inhibition curve. Broadly, the bioavailability is dose-corrected exposure relative to a reference, in per cent. Read a high bioavailability as good availability. For `O=C(c1ccccc1)c1ccccc1C(=O)N(CCc1c[nH]cn1)C(Cc1ccccc1)C(=O)NCC(c1ccccc1)c1ccccc1` (racemic) [Compound 43], in the data set on C57/BL mouse (10 mg/kg intraperitoneally one hour before induction), the “Sepsis: Murine LPS-d-galactosamine model % inhibition” value is 33 @ 10 mg/kg %. Further, the half-maximal inhibitory concentration (IC50) in the data set on L929 cells (Mus musculus) came to 2980 nM. For the same compound, the bioavailability in data set [1] (in vivo, po, species not given) is below 1%. For the same compound, in data set [1] (in vivo), the half-life is 3.6 h. Besides, the “Inflammatory Bowel Disease: Rat DNBS model % inhibition of colonic weight gain” value in the data set on male rats (50 mg/kg orally) turned out to be 31% @ 50 mg/kg.

`COc1ccc(C(C(=O)NCC(c2ccccc2)c2ccccc2)N(CCc2c[nH]cn2)C(=O)c2ccccc2C(=O)c2ccccc2)cc1C` (centres unmarked) [Compound 42]: the values for the 50% inhibitory concentration (IC50) (in data set [2]; with L929 cells (Mus musculus)) were 16000 nM and 779 nM, respectively.

Turning to `N#Cc1cccc(C(C(=O)NCCC(c2ccccc2)c2ccccc2)N(CCc2c[nH]cn2)C(=O)c2ccccc2C(=O)c2ccc(Cl)cc2)c1` (centres unmarked) [Compound 91], the inhibition at 1 µM with L929 cells (Mus musculus) was 71%.

With `COc1ccc(CCNC(=O)C(c2cccc(C#N)c2)N(CCc2c[nH]cn2)C(=O)C(C)C)cc1` (centres unmarked) [Compound 92], in the data set with L929 cells (Mus musculus), the inhibition at 1 µM came out at 52%.

As for `Cc1nn(-c2nccc(-c3ccccn3)n2)c(C)c1Oc1ccc(C(C)C)cc1` [Compound 97, 2-[4-(4-Isopropyl-phenoxy)-3,5-dimethyl-pyrazol-1-yl]-4-pyridin-2-yl-pyrimidine], the IC50 in the data set with L929 cells (Mus musculus) came to 397 nM.

In the case of `Cc1nn(-c2nccc(-c3ccccn3)n2)c(C)c1Oc1ccc(CN2CCN(Cc3ccccc3)CC2)cc1` [Compound 104, 2-{4-[4-(4-Benzyl-piperazin-1-ylmethyl)-phenoxy]-3,5-dimethyl-pyrazol-1-yl}-4-pyridin-2-yl-pyrimidine], in the data set on L929 cells (Mus musculus), the IC50 was 50 nM.

Turning to `Cc1nn(-c2nccc(-c3ccccn3)n2)c(C)c1SCc1ccc(Cl)cc1` [Compound 119, 2-[4-(4-Chloro-benzylsulfanyl)-3,5-dimethyl-pyrazol-1-yl]-4-pyridin-2-yl-pyrimidine], the 50% inhibitory concentration (IC50) in data set [2] was found to be 7950 nM. Moreover, the “Sepsis: Murine LPS-d-galactosamine model % inhibition” value with C57/BL mouse (200 mg/kg intraperitoneally one hour before induction) is 33 @ 200 mg/kg %. Moreover, the half-life in data set [1] (in vivo) was 2.3 h. Besides, in data set [1] (species not given), the “Pharmacokinetic Parameters % oral bioavailability” value is listed as “Undetectable”. In addition, the “Inflammatory Bowel Disease: Rat DNBS model % inhibition of colonic weight gain” value in the data set with male rats (100 mg/kg orally) turned out to be 51% @ 100 mg/kg.

`Cc1nn(-c2nccc(-c3ccccn3)n2)c(C)c1S(=O)(=O)Cc1ccc(Cl)cc1` [Compound 124, 2-[4-(4-Chloro-phenylmethanesulfonyl)-3,5-dimethyl-pyrazol-1-yl]-4-pyridin-2-yl-pyrimidine]: the IC50 in data set [2] was found to be 13400 nM.

As for `Nc1nc(-c2ccccn2)nc(-n2nc(-c3ccc(Cl)cc3)nc2Cc2ccccc2)n1` [Compound 133, 4-[5-Benzyl-3-(4-chloro-phenyl)-[1,2,4]triazol-1-yl]-6-pyridin-2-yl-[1,3,5]triazin-2-ylamine], the IC50 in the data set on L929 cells (Mus musculus) is 19500 nM.

In the case of `Cc1nn(-c2ncnc(-c3ccccn3)n2)c(C)c1Sc1ccc(Cl)cc1` [Compound 141, 2-[4-(4-Chloro-phenylsulfanyl)-3,5-dimethyl-pyrazol-1-yl]-4-pyridin-2-yl-[1,3,5]triazine], the IC50 in the data set with L929 cells (Mus musculus) was 1.1 nM.

With `Cc1nn(-c2nc(N)nc(-c3ccccn3)n2)c(C)c1Cc1ccccc1` [Compound 142, 4-(4-Benzyl-3,5-dimethyl-pyrazol-1-yl)-6-pyridin-2-yl-[1,3,5]triazin-2-ylamine], the IC50 in the data set with L929 cells (Mus musculus) is 152 nM.

As for `Cc1nn(-c2nc(N)nc(-c3ccccn3)n2)c(C)c1CCCc1ccccc1` [Compound 144, 4-[3,5-Dimethyl-4-(3-phenyl-propyl)-pyrazol-1-yl]-6-pyridin-2-yl-[1,3,5]triazin-2-lyamine], the IC50 in the data set with L929 cells stood at 15 nM.

Take `CC1=NN(c2nccc(-c3ccccn3)n2)C(=O)C1Sc1ccc(Cl)cc1` (centres unmarked) [Compound 147, 4-(4-Chloro-phenylsulfanyl)-5-methyl-2-(4-pyridin-2-yl-pyrimidin-2-yl)-2,4-dihydro-pyrazol-3-one]: the IC50 with L929 cells (Mus musculus) came to 734 nM.

In the case of `COc1c(Sc2ccc(Cl)cc2)c(C)nn1-c1nccc(-c2ccccn2)n1` [Compound 148, 2-[4-(4-Chloro-phenylsulfanyl)-5-methoxy-3-methyl-pyrazol-1-yl]-4-pyridin-2-yl-pyrimidine], the IC50 in the data set with L929 cells (Mus musculus) worked out at 32100 nM.
